Test system: 3T3-L1 adipocytes
Assay: Insulin stimulated glucose uptake (ISGU), [3H]2-deoxyglucose incorporation in differentiated adipocytes
Type: cell-based, Murine
Conditions: 3 days incubation; for increase in glucose uptake in combination with CLA over CLA alone: compound A in combination with CLA, 1 nM insulin, significantly higher than CLA alone, P<0.05 Students T-test, FIG. 2
Protocol: Murine (3T3-L1 cells; ATCC CL-173) were seeded into multi-well plates and incubated in growth medium (DMEM supplemented with 10% FCS, 2 mM L-glutamine, 100 iu/ml penicillin and 100 μg/ml streptomycin) at 37° C./5% CO2 until 2 days post-confluence (day 0). Differentiation was carried out approximately according to Iwata et al (Diabetes 2001 50: 1083-1092). Briefly, differentiation was induced by changing to growth medium containing 3-isobutyl-1-methylxanthine (0.5 mM), dexamethasone (0.25 μM) and 1 μM insulin for 3 days, and then growth medium containing 0.8 μM insulin for another 3 days. Finally cells were retained in serum free growth medium until ready for experimentation, typically cells were used between days 6-9.
Pine nut oil (PNO) and palm kernel oil (PKO) fatty acids were prepared by saponification of pine nut oil or palm kernel oil. PNO contains high levels of PUFAs, in particular high levels of pinolenic acid. PKO has high levels of medium chain fatty acids (C8-12). All samples were prepared as 1 mg/ml stocks in ethanol and diluted in media accordingly with the following exceptions. IGF-1 was prepared by initially dissolving in […], followed by the addition of 400 μl PBS supplemented with 1 mg/ml BSA. This was diluted with media to the correct concentration. Ascorbic acid, sodium vanadate and aspartame were made up in DMEM.
Differentiated adipocytes were incubated for a period of 3 days in DMEM (containing 2 mM L-glutamine, 100 iu/ml penicillin, 100 μg/ml streptomycin, 1 nM insulin and 10% FCS) supplemented with or without CLA and/or compound As. The cells were then washed three times with DMEM (containing 1 mM deoxyglucose). Insulin stimulated glucose uptake was carried out according to Iwata et al (Diabetes 2001 50: 1083-1092). Briefly, cells were stimulated with 1 nM insulin in Krebs Ringer Phosphate (KRP) and HEPES buffer [10 mM HEPES, 131.2 mM NaCl, 4.7 mM KCl, 2.5 mM CaCl2, 1.2 mM MgSO4, 2.5 mM sodium phosphate buffer, pH 7.4] with 1% BSA at 37° C. […] Radioactive incorporation was measured by scintillation counting of 100 μl of each cell lysate. […]

O=C1O[C@H]([C@@H](O)CO)C(O)=C1O [Vit C, Ascorbic acid]
increase in glucose uptake in combination with CLA over CLA alone: 20%

Conjugated linoleic acid [CLA]
insulin stimulated glucose uptake (ISGU), effect of CLA alone (CLA fatty acids at 10 or 50 μg/ml, compared with control differentiated adipocytes, radiolabel incorporation (3H-DPM), FIG. 1): reduces ISGU compared with the control

IGF-1: IGF-1, purified or in natural extracts; compound A
increase in glucose uptake in combination with CLA over CLA alone: 39%

From patent US6888016B2, “Mixtures for stimulating glucose up-take” (Loders Croklaan USA LLC, priority 2001, dated 2005)
